Reference: US12357711B2, “PSMA binding dual mode radiotracer and therapeutic” (Technische Universität München, priority 2019, dated 2025)
Where “and” joins values, the source holds several entries; their conditions need not be identical. Equal values may be shown once. Read-outs that look alike come from different tables or passages of the source.

Assays:
human serum albumin = biological target: T1, human serum albumin (Homo sapiens, UniProt P02768); assay: HSA binding on Chiralpak HSA column; format: in vitro ADME; details: Chiralpak HSA column (50 × 3 mm, 5 μm)
T1 construct: purchased H13H-2433
T1 sequence (P02768 25-609): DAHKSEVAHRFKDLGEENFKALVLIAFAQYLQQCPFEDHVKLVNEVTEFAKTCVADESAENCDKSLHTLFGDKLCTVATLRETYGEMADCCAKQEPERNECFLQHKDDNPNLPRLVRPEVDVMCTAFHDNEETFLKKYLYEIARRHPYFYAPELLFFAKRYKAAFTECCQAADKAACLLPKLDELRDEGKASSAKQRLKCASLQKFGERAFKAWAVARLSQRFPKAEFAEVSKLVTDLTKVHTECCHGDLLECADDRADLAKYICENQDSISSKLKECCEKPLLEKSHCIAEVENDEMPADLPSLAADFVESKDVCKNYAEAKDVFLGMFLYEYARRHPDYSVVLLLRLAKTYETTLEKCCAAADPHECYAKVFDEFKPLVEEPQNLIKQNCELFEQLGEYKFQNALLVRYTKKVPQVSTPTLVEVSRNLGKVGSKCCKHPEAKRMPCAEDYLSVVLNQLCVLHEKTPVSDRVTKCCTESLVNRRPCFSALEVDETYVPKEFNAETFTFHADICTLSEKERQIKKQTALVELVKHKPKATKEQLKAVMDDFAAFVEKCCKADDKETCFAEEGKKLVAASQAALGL
Method: The mobile phase (A: NH4OAc, 50 mM in water, pH 7 and B: isopropanol) was freshly prepared for each experiment and only used for one day. The column was kept at room temperature and each run was stopped after detection of the signal to reduce the acquisition time. All substances were dissolved in a 0.5 mg/ml concentration in 50% 2-propanol and 50% 50 mM pH 6.9 ammonium acetate buffer. […] All nine reference substances were injected consecutively to establish a non-linear regression with Origin Pro 2016G.

[1] = test system: LNCaP tumor-bearing SCID mice; assay: Biodistribution at 1 h p.i.; format: in vivo
Method: FIG. 10: Biodistribution (in % ID/g) of ^18E-labeled rhPSMA tracers at 1 h p.i in LNCaP tumor-bearing SCID mice. Data are expressed as mean±SD (n=4 for rhPSMA7.1, n=5 for 7.2, n=4 for 7.3, n=5 for 7.4 and n=3 for 7-rac).

[2] = test system: PSMA-positive LNCaP cells; assay: Internalization in LNCaP cells, normalized to ([125I]I-BA)KuE; format: cell-based; details: LNCaP cells, 1 hour, 37° C.
Method: Data is corrected for non-specific binding ([…]) and expressed as mean±SD (n=3).
Subsequent to the removal of the culture medium, the cells were washed once with 500 μL DMEM-F12 (5% BSA) and left to equilibrate for at least 15 min at 37° C. in 200 μL DMEM-F12 (5% BSA). Each well was treated with either 25 μL of either DMEM-F12 (5% BSA) or a 100 μM PMPA solution for blockade. Next, 25 μL of the ^68Ga/^18F-labeled PSMA inhibitor (5.0 nM) was added and the cells incubated at 37° C. for 60 min. The experiment was terminated by placing the 24-well plate on ice for 3 min and consecutive removal of the medium. Each well was rinsed with 250 μL HBSS and the fractions from these first two steps combined, representing the amount of free radioligand. Removal of surface bound activity was accomplished by incubation of the cells with 250 μL of ice-cold PMPA (10 μM in PBS) solution for 5 min and rinsed again with another 250 μL of ice-cold PBS. The internalized activity was determined by incubation of the cells in 250 μL 1 M NaOH and the combination with the fraction of a subsequent wash step with 250 μL 1.0 M NaOH. Each experiment (control and blockade) was performed in triplicate. Free, surface bound and internalized activity was quantified in a γ-counter. […] Data were corrected for non-specific internalization and normalized to the specific-internalization observed for the radioiodinated reference compound.

PSMA = biological target: T2, PSMA (Homo sapiens, UniProt Q04609); assay: Determination of IC50: PSMA affinity, competitive binding on LNCaP cells against ([125I]I-BA)KuE; details: LNCaP cells, [125I]IB-KuE c=0.2 nM, 1 h, 4° C.
T2 construct: endogenous in cells; host or cells: LNCaP cells
T2 sequence (Q04609 whole entry): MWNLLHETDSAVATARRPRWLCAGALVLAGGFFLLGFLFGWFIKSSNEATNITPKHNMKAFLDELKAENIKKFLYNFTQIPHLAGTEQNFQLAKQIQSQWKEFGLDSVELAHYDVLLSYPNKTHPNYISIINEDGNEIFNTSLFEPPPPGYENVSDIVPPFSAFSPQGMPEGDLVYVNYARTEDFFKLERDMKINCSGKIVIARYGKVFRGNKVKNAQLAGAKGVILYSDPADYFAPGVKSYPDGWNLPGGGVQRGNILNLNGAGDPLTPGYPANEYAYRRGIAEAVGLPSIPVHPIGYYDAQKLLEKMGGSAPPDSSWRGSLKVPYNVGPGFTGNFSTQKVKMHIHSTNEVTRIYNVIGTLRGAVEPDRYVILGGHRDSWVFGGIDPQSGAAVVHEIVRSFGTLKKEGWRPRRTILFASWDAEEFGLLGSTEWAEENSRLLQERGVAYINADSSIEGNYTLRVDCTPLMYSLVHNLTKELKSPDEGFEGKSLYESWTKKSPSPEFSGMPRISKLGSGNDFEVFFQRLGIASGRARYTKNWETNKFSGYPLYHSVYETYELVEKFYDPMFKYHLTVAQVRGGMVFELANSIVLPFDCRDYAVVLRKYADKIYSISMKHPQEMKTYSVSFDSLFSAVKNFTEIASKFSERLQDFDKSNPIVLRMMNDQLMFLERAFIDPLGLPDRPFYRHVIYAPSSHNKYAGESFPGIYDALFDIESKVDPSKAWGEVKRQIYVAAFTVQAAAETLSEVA
Method: Data are expressed as mean±SD (n=3, in 3 different experiments).
After removal of the culture medium, the cells were treated once with 500 μL of HBSS (Hank's balanced salt solution, Biochrom, Berlin, Germany, with addition of 1% bovine serum albumin (BSA)) and left 15 min on ice for equilibration in 200 μL HBSS (1% BSA). […] Quantification of bound and free radioligand was accomplished in a γ-counter.

[3] = test system: LNCaP tumor-bearing SCID mice; assay: Biodistribution at 1 h p.i. with competition (co-injected PMPA); format: in vivo; details: co-injected with PMPA (8 mg/kg)
Method: FIG. 11: Biodistribution [% ID/g] of ^18F-rhPSMAs co-injected with PMPA (8 mg/kg) at 1 h p.i in LNCaP tumor-bearing SCID mice. Data are expressed as mean±SD (n=3).

[4] = test system: LNCaP tumor bearing mouse; assay: Radio-HPLC quantification of relative changes of each rhPSMA7 isomer after [18F]rhPSMA7-rac, 30 min p.i.; format: in vivo, mice; details: blood, liver, kidney, urine, 30 min p.i. of [18F][natGa]rhPSMA7-rac
Method: Analytical reversed-phase high pressure chromatography (RP-HPLC) were performed using Shimadzu gradient systems (Shimadzu Deutschland GmbH, Neufahrn, Germany), equipped with a SPD-20A UV/Vis detector (220 nm, 254 nm). […] Eluents for all HPLC operations were water (solvent A) and acetonitrile (solvent B), both containing 0.1% trifluoroacetic acid. […] The gradient for all HPLC operations was: 5% B isocratic 0-3 min, 25-35% B 3-43 min, 95-95% B 43-48 min.
In order to quantify the relative uptake of each isomer (rhPSMA-7.1-7.4), a tumor-bearing male CB-17-SCID mouse was injected with the racemic mixture of rhPSMA-7 (180-280 MBq, SA=247-349 GBq/μmol, produced at the Klinikum rechts der Isar in a fully automated procedure). […] The eluate was diluted with water and analysed by radio-HPLC. […]
Tumour and kidneys were separately homogenised in the tissue homogeniser with 1 mL of extraction buffer (850 μL 1 M HEPES pH7.4, 100 μL 20 mM PMPA and 100 μL 1M NaCl) for 30 min. […] The eluate of each organ was diluted with water and analysed by radio-HPLC.
The organs (tumour, kidney, liver) were separately homogenised in a 2 mL tube together with 3 grinding balls (3 mm diameter) and 1 mL of extraction buffer (850 μL 1 M HEPES pH7.4, 100 μL 20 mM PMPA and 100 μL 1M NaCl) for 10 min at 30 Hz. […] The eluate of each organ was diluted with water and analysed by radio-HPLC. […]

CC(C)(C)[Si](F)(c1ccc(C(=O)NC[C@@H](NC(=O)CC[C@H](C(=O)O)N2CCN(CC(=O)[O-])CCN(CC(=O)[O-])CCN(CC(=O)[O-])CC2)C(=O)N[C@H](CCCCNC(=O)CCC(=O)NCCC[C@@H](NC(=O)CC[C@H](NC(=O)N[C@@H](CCC(=O)O)C(=O)O)C(=O)O)C(=O)O)C(=O)O)cc1)C(C)(C)C.[Ga+3] [rhPSMA7.1, [^19F][^natGa]D-Dap-R-DOTAGA-rhPSMA7]
HSA Binding (human serum albumin): 97.7%
Biodistribution adrenals [1]: 2.0 ± 0.25 % ID/g
Biodistribution blood [1]: 0.53 ± 0.13 % ID/g
Biodistribution bone [1]: 0.50 ± 0.31 % ID/g
Biodistribution heart [1]: 0.53 ± 0.03 % ID/g
Biodistribution intestine [1]: 0.30 ± 0.16 % ID/g
Biodistribution kidneys [1]: 220 ± 24.8 % ID/g
Biodistribution liver [1]: 0.75 ± 0.62 % ID/g
Biodistribution lung [1]: 1.1 ± 0.21 % ID/g
Biodistribution muscle [1]: 0.32 ± 0.30 % ID/g
Biodistribution pancreas [1]: 0.45 ± 0.12 % ID/g
Biodistribution spleen [1]: 20.0 ± 4.2 % ID/g
Biodistribution stomach [1]: 0.28 ± 0.17 % ID/g
Biodistribution tumor ([1]; LNCaP tumor): 14.1 ± 4.1 % ID/g
individual internalization rates ([2]; c=0.5 nM, single measurements): 77.5 % of [^125I]IB-KuE and 61.8 % of [^125I]IB-KuE and 70.6 % of [^125I]IB-KuE and 68.0 % of [^125I]IB-KuE and 67.9 % of [^125I]IB-KuE and 71.5 % of [^125I]IB-KuE
internalization rate Mean ([2]; mean): 69.55 % of [^125I]IB-KuE
IC50 (PSMA; HBSS+1% BSA, single measurements, read-out: individual IC50 measurements): 5.04 nM and 7.11 nM and 8.31 nM and 4.97 nM and 6.44 nM and 8.74 nM and 6.91 nM and 7.27 nM
IC50 (PSMA; mean of individual measurements, read-out: IC50 Mean): 6.85 nM
Biodistribution adrenals [3]: 0.003 ± 0.004 % ID/g
Biodistribution blood [3]: 0.86 ± 0.40 % ID/g
Biodistribution bone [3]: 0.33 ± 0.24 % ID/g
Biodistribution heart [3]: 0.37 ± 0.16 % ID/g
Biodistribution intestine [3]: 0.66 ± 0.32 % ID/g
Biodistribution kidneys [3]: 10.9 ± 2.5 % ID/g
Biodistribution liver [3]: 0.43 ± 0.07 % ID/g
Biodistribution lung [3]: 0.85 ± 0.29 % ID/g
Biodistribution muscle [3]: 0.17 ± 0.15 % ID/g
Biodistribution pancreas [3]: 0.16 ± 0.10 % ID/g
Biodistribution spleen [3]: 0.21 ± 0.08 % ID/g
Biodistribution stomach [3]: 0.97 ± 0.81 % ID/g
Biodistribution tumor ([3]; LNCaP tumor): 0.94 ± 0.22 % ID/g
percentage change of isomer in sample with respect to its proportion in the injected solution [4]: largest positive percentage change
